Patent US12329457B2, “Hyperspectral imaging for early detection of Alzheimer's disease” (REGENTS OF THE UNIVERSITY OF MINNESOTA, priority 2011, dated 2025)

Legend:
SH-SY5Y cells = experiment: HSI spectral signature of cells exposed to Aβ1-42; type: cell-based, human
Experimental: Cell Culture and Cellular Uptake. The human neuroblastoma cell line, SH-SY-5Y, used in the present study was obtained from American Type Culture Collection (Manassas, VA). The cells were maintained in MEM:F12 (1:1) medium supplemented with 10% FBS, 100 units/mL penicillin and 100 units/mL streptomycin and 1% NEAA (non-essential amino acid). Cells were grown at 37° C. in a humidified atmosphere with 5% CO2/95% air. FITC-Aβ1-42, and FITC-scrambled-Aβ1-42, were added to SHSY5Y cultures for 24 h. For time-dependence experiments, 250 nM FITC-Aβ1-42 was added to SHSY5Y cells, plated in 4-well Lab-Tek chamber slides (Nunc) and images as well as spectral scans (Cytoviva) were acquired at varying times (0-5 days) after addition of the labeled-Aβ1-42. For dose-dependence experiments, FITC-Aβ1-42 was added at varying concentrations (0-1000 nM) and imaged 24 h thereafter. […]
(§1) The images were captured at 40× magnification using ENVI software, which is followed by extraction of spectral curves as described in the next section. The camera captured spectral responses from 400-1000 nm with a maximum readout time of 12 frames per second. […]
(§2) Acquisition of Spectral Scans from Hyperspectral Image The CytoViva Hyperspectral image analysis software powered by ENVI contains features to aid in the quantification and identification of materials by spectral data analysis. […]

Aβ^1-42 aggregation = biological target: T1, Aβ^1-42 aggregation (Homo sapiens, UniProt P05067); experiment: HSI spectral signature inhibitor screening in Aβ1-42-treated SH-SY5Y cells; type: cell-based; conditions: cells co-incubated with inhibitor and Aβ^1-42; rank guanidine, then guanosine, then urea
T1 construct: Aβ1-42, FITC-Aβ1-42 and FITC-scrambled-Aβ1-42 were purchased from American Peptide Company; purchased American Peptide Company (Sunnyvale, CA, USA); host or cells: synthetic peptide added to SH-SY5Y cell cultures
T1 sequence (P05067 672-713): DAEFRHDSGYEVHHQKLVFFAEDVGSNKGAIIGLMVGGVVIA
Experimental: Cell Culture and Cellular Uptake. The human neuroblastoma cell line, SH-SY-5Y, used in the present study was obtained from American Type Culture Collection (Manassas, VA). The cells were maintained in MEM:F12 (1:1) medium supplemented with 10% FBS, 100 units/mL penicillin and 100 units/mL streptomycin and 1% NEAA (non-essential amino acid). Cells were grown at 37° C. in a humidified atmosphere with 5% CO2/95% air. FITC-Aβ1-42, and FITC-scrambled-Aβ1-42, were added to SHSY5Y cultures for 24 h. For time-dependence experiments, 250 nM FITC-Aβ1-42 was added to SHSY5Y cells, plated in 4-well Lab-Tek chamber slides (Nunc) and images as well as spectral scans (Cytoviva) were acquired at varying times (0-5 days) after addition of the labeled-Aβ1-42. For dose-dependence experiments, FITC-Aβ1-42 was added at varying concentrations (0-1000 nM) and imaged 24 h thereafter. In some experiments, SH-SY-5Y cells were incubated with FITC-Aβ1-42 for 48 h in the presence and absence of inhibitors or promoters of β-amyloid peptide.
CytoViva hyperspectral imaging System After each treatment, slides were examined utilizing a CytoViva microscope and hyperspectral imaging system (CytoViva-Hyperspectral Imaging System (HSI), Auburn, AL; see the Cytoviva Hyperspectral Imaging System Manual) mounted on an Olympus BX-41 optical microscope. This system employs a darkfield-based illuminator that focuses a highly collimated light at oblique angles on the sample to obtain images with improved contrast and signal-to-noise ratio. […]
as §1, §2

Aβ^1-42 aggregates = biological target: T2, Aβ^1-42 aggregates (Homo sapiens, UniProt P05067); experiment: HSI with Spectral Angle Mapper (SAM) mapping and counting of intracellular amyloid aggregates; type: cell-based; conditions: HSI imaging coupled with SAM
T2 construct: Aβ1-42, FITC-Aβ1-42 and FITC-scrambled-Aβ1-42 were purchased from American Peptide Company; purchased American Peptide Company (Sunnyvale, CA, USA); host or cells: synthetic peptide added to SH-SY5Y cell cultures
T2 sequence (P05067 672-713): as above
Experimental: Cell Culture and Cellular Uptake. The human neuroblastoma cell line, SH-SY-5Y, used in the present study was obtained from American Type Culture Collection (Manassas, VA). The cells were maintained in MEM:F12 (1:1) medium supplemented with 10% FBS, 100 units/mL penicillin and 100 units/mL streptomycin and 1% NEAA (non-essential amino acid). Cells were grown at 37° C. in a humidified atmosphere with 5% CO2/95% air. FITC-Aβ1-42, and FITC-scrambled-Aβ1-42, were added to SHSY5Y cultures for 24 h. […]
as §1
Spectral Angle Mapping Classification Algorithm Among supervised classification methods, a SAM classification algorithm was selected due to its better performance than other classification algorithms for detection of β-amyloid aggregates in unknown samples. […] The spectral angle parameter value as α=0·1 or 0·2 was used for a SAM classifier where α is defined as the angle between testing spectrum vector a, and reference spectrum vector b and is calculated using the following equation: (Also, see FIG. 14, and Siddiqi et al., Cancer, 114(1), 13-21 (2008).

APP/PS1 mice [1] = experiment: Morris Water maze memory test in APP/PS1 mice; type: in vivo, mouse
APP/PS1 mice [2] = experiment: Immunohistochemistry of brain tissue for Aβ load and plaques; type: in vivo, mouse
Experimental: (a) Isolation and analysis of brain tissue. Brains were removed from wild type and Alzheimer's mice and post fixed in Zamboni's fixative (4% paraformaldehyde and 15% picric acid in 0.25 M sodium phosphate, pH 7.5) for 48 h before being cryopreserved in a 30% (wt/vol) sucrose/0.1 sodium phosphate-buffered saline solution. Frozen sections (10 μm) in OCT were cut on a sliding microtome, brought to room temperature and were coverslipped with hardset Vectashield mounting medium with the nuclear stain DAPI (catalogue #H-1500; Vector Laboratories, Burlingame, CA). The whole-mount brain slides were scanned with Cytoviva microscope and spectral signatures were collected from wavelengths in the 400-1000 nm range as described.
(c) Immunohistochemistry of mouse brain and retina samples. For immunofluorescence studies, brain section slides and retina sample slides were pre-incubated for 1 hour in 5% normal goat serum (NGS) in 1×PBST (1×PBS containing 0.3% Triton X-100) at room temperature. A primary antibody against β-amyloid peptide ((Cell signaling, Cat. #2454) was employed then at a dilution of 1:200 in 1% NGS in 1×PBST. After an overnight incubation at 4° C., the slides were rinsed thrice for 10 min with 1×PBST and then incubated for 2 h in goat anti-rabbit IgG conjugated to Cy3 diluted to 1:1000 in 1% NGS in 1× PBST. The sections were rinsed in PBST thrice for 10 min and in PBS for 5 min. Samples were then dehydrated in ethanol, cleared with methyl salicylate, mounted in DEPEX (Electron Microscopy Science, Poole, UK) and staining of β-amyloid aggregates and plaques was visualized with Cytoviva microscope.
(§3) Hyperspectral Imaging to follow treatment success in Alzheimer's mice Alzheimer's and wild type mice were treated with a candidate drug, ψ-GSH, three times a week for 12 weeks starting at the age of three to four months. (see More et al., (2012) Restoration of Glyoxalase Enzyme Activity Precludes Cognitive Dysfunction in a Mouse Model of Alzheimer's Disease. ACS Chem. Neurosci., DOI: 10.1021/cn3001679) The study was divided in four groups (10 mice/group). 1. […]

APP/PS1 mice [3] = experiment: Retinal HSI spectra to follow treatment in APP/PS1 mice; type: in vivo, mouse
Experimental: (b) Isolation and analysis of retina tissue. Eyes were enucleated from wild type and Alzheimer's mice at the desired age. For whole-mount retinas, eyes were fixed in […] of freshly prepared 4% PFA-PBS at room temperature for 45 minutes. This was followed by washing with ice-cold PBS solution (2 mL) at least five times. The anterior eye portion, cornea, was dissected out under surgical microscope. The iris was then removed followed by the sclera, lens and hyaloid vessels. The isolated retinas were then washed with ice-cold PBS and divided into four quadrants by making four radial incisions. The whole-mounts were prepared by transferring the dissected retinas onto a microscope slide and coverslipped with hardset Vectashield mounting medium with the nuclear stain DAPI. The whole-mount retina slides were scanned with Cytoviva microscope and spectral signatures were collected from wavelengths in the 400-1000 nm range as described before.
as §3

## Aβ^1-42: β-amyloid peptide purchased from American Peptide Company; FITC-labelled form used for cell uptake
SH-SY5Y cells; 250 nM peptide, HSI spectra over time
  time at which transmitted light reaches its nadir: 48 h
SH-SY5Y cells; SH-SY5Y cells, 0-1000 nM peptide
  HSI spectral change in the 400-1000 nm wavelength region: transmitted light shifts to lower values

## NC(N)=O [urea]
Aβ^1-42 aggregation
  attenuation of amyloid-induced HSI spectral change: attenuation of amyloid-induced HSI spectral change

## [Zn+2] [Zn^2+]
Aβ^1-42 aggregates
  number of intracellular amyloid aggregates compared to cells treated with Aβ^1-42 alone: 280%

## N=C(N)N [guanidine, Guanidine]
Aβ^1-42 aggregation
  attenuation of amyloid-induced HSI spectral change: greatest attenuation in HSI spectral change
Aβ^1-42 aggregates
  number of intracellular amyloid aggregates compared to cells treated with Aβ^1-42 alone: 62%

## N[C@@H](CNC(=O)N[C@@H](CS)C(=O)NCC(=O)O)C(=O)O [ψ-GSH]
APP/PS1 mice [1]; APP/PS1 mice treated orally
  spatial memory development and escape latencies relative to the saline-treated group: did not reach statistical significance
APP/PS1 mice [1]; day 3, ψ-GSH treated mice (WT saline 17.29±2.13 s)
  escape latency: 17.91 ± 4.65 s
APP/PS1 mice [1]; day 4, ψ-GSH treated mice (WT saline 12.42±2.18 s)
  escape latency: 14.64 ± 2.61 s
APP/PS1 mice [1]; i.p.
  learned behavior during the first week of testing: significant learned behavior inculcation
APP/PS1 mice [1]; i.p., untreated APP-PS1 16.39±3.39%, non-transgenic vehicle 36.67±5.30%
  time in the target quadrant, probe trial: 38.43±3.73%
APP/PS1 mice [1]; orally treated APP/PS1 mice
  time in the target quadrant, probe trial: 21.76±5.36%
APP/PS1 mice [2]; i.p., versus untreated APP/PS1 mice
  brain Aβ load: significantly lower Aβ load
APP/PS1 mice [2]; orally treated APP/PS1 mice
  Aβ plaques in brain relative to controls: modest decrease in Aβ plaques
APP/PS1 mice [2]; ψ-GSH treated group (i.p.)
  number and sizes of Aβ plaques in brain: drastically reduced
APP/PS1 mice [3]; APP/PS1 mice treated orally
  retinal HSI spectra: did not exhibit any differences from those of transgenic mice
APP/PS1 mice [3]; APP/PS1 mice, ψ-GSH i.p. 12 weeks, after 2 months of treatment onward
  retinal HSI spectra: tended toward those from normal mice

## Nc1nc2c(ncn2[C@@H]2O[C@H](CO)[C@@H](O)[C@H]2O)c(=O)[nH]1 [guanosine]
Aβ^1-42 aggregation
  attenuation of amyloid-induced HSI spectral change: attenuation of amyloid-induced HSI spectral change
